The subject of one experiment is jasmonic acid pathway. Particulars: corn exposed to the volatile; Engelberth et al. 2004; cited from earlier work.
Experiment [1] relates to SI-PI-I (marker for plant proteinase inhibitors). In words: Transcriptional response of SI-PI-I in tomato plants exposed to volatiles (laboratory). The experiment is classed as in vivo, Solanum lycopersicum cv. Moneymaker. Particulars: intact tomato plants exposed 24 h; filter paper, 1:10,000 ester:methanol; n=8. As to the method: (§1) Moneymaker tomato plants were used. Two weeks after seed germination, the seedlings were individually transplanted into pots (8×8×8 cm). The plants were kept at 25±2° C., with a constant relative humidity of 65%±5% and a 14:10 h (light:dark) photoperiod. Tomato plants that had not received any pesticide treatment at four weeks of age (about 20 cm tall) were used. All volatiles used were obtained from Sigma-Aldrich (St. Louis, Mo., USA). Each volatile was exposed by using a 2×2 cm piece of filter paper on which 10 μl of a solution containing the corresponding volatile at a concentration of 1:10,000 [(Z)-3-hexenyl ester:methanol] was impregnated as an emitting source of the corresponding volatile (Pérez-Hedo, M. et al. Biocontrol, 63: 203-213 (2018)).
(§2) To activate a plant, two pieces of filter paper impregnated with the volatile were placed at the bottom of a 30×30×30 cm plastic cage (BugDorm-1 Insect Tents; MegaView Science Co., Ltd, Taichung, Taiwan) into which the plant was introduced. A control treatment was carried out in which the two pieces of filter paper were impregnated with 10 μl of methanol. Eight repetitions per treatment were performed. The plants of the treatments were kept exposed to the volatile without disturbing for 24 hours in separate and isolated climatic chambers to avoid any interference from the volatiles and were kept at 25±2° C., 65±10% RH, and a 14:10 h (L:D) photoperiod. […]
(§3) The methodology followed for extracting and quantifying gene expression was described by Pérez-Hedo et al. Journal of Pest Science 3: 543-554 (2015). The primers used were forward primer: 5′-[…]-3′ (SEQ ID NO: 1) and reverse primer: 5′-[…]-3′ (SEQ ID NO: 2) for the quantification of PR1, forward primer: 5′-[…]-3′ (SEQ ID NO: 3) and reverse primer: 5′-[…]-3′ (SEQ ID NO: 4) for SI-PI-I, and forward primer: 5′-[…]-3′ (SEQ ID NO: 5) and reverse primer: 5′-[…]-3′ (SEQ ID NO: 6) for the SI-PI-II gene. […]

Experiment [2] concerns PR1 (marker gene for the salicylic acid signaling pathway). In words: Transcriptional response of defense gene PR1 in tomato plants exposed to volatiles (laboratory). Particulars: intact tomato plants exposed 24 h; filter paper, 1:10,000 ester:methanol; n=8. The experiment is classed as in vivo, Solanum lycopersicum cv. Moneymaker. On the procedure:
as §1, §2, §3

In experiment [3] the test system is SI-PI-II (marker for plant proteinase inhibitors). Briefly: Transcriptional response of SI-PI-II in tomato plants exposed to volatiles (laboratory). The experiment is classed as in vivo, Solanum lycopersicum cv. Moneymaker. Particulars: intact tomato plants exposed 24 h; filter paper, 1:10,000 ester:methanol; n=8. As to the method:
as §1, §2, §3

Another experiment has as its system Bemisia tabaci. Particulars: Pérez-Hedo et al. Biocontrol 2018; cited from earlier work.
The subject of another experiment is T. absoluta. Particulars: Pérez-Hedo et al. Biocontrol 2018; cited from earlier work.
The next experiment has as its system Encarsia formosa. Particulars: Pérez-Hedo et al. Biocontrol 2018; cited from earlier work.

On to `CC/C=C\CCO` [(Z)-3-hexen-1-ol], for which, in the experiment with jasmonic acid pathway, the “Jasmonic acid pathway expression” value is reported as “overexpress”.
On to `CC/C=C\CC=O` [(Z)-3-hexenal], for which, in the experiment on jasmonic acid pathway, the “Jasmonic acid pathway expression” value is on record as “overexpress”.
For `CC/C=C\CCOC(C)=O` [(Z)-3-hexenyl acetate], in experiment [1], the “Transcriptional response of SI-PI-I compared to the control” value is “significantly overexpressed”. For the same compound, in experiment [2], the “Transcriptional response of PR1 compared to the control” value is reported as “significantly overexpressed”. Further, in the experiment on jasmonic acid pathway, the “Jasmonic acid pathway expression” value was “overexpress”. Further, in experiment [3], the “Transcriptional response of SI-PI-II compared to the control” value is listed as “significantly overexpressed”.
Regarding `CC/C=C\CCOC(=O)CCC` [(Z)-3-hexenyl butanoate], in experiment [1], the “Transcriptional response of SI-PI-I compared to the control” value was “significantly overexpressed”. In addition, in experiment [2], the “Transcriptional response of PR1 compared to the control” value is given as “significantly overexpressed”. In experiment [3], the “Transcriptional response of SI-PI-II compared to the control” value is reported as “significantly overexpressed”.
Regarding `COC(=O)c1ccccc1O` [methyl salicylate], in the experiment with Bemisia tabaci, the “Effect of the volatile on B. tabaci” value is listed as “repellent”. Further, in the experiment on T. absoluta, the “Effect of the volatile on T. absoluta” value is “no effect”. Moreover, the “Effect of the volatile on E. formosa” value in the experiment with Encarsia formosa was “attractive”.

The record behind these values is patent US20230240290A1, “USE OF (Z)-3-HEXENYL ESTERS AND METHOD FOR PROTECTING PLANTS AGAINST PESTS” (UNIVERSITAT POLITÈCNICA DE VALÈNCIA, priority 2020, published 2023).
